Results from paper PMC8204385 (Biophysical Journal, 2021).
“And” between values parts separate entries of the source, which are not always exact repeats. Equal entries are not always repeated.

Molecular target: T1, human SHP-1 (Homo sapiens, UniProt P29350)
T1 construct: 6xHis (N); made in house; host or cells: Escherichia coli BL21-CodonPlus (DE3)-RIPL
Assay: SPR-based assay for tethered SHP-1 reactions on immobilised phosphopeptides, extended MPDPDE model fit
Format: binding

[1] = SPR, 37°C, MPDPDE fit, mean ± SE of N experiments

T1 sequence (P29350 whole entry): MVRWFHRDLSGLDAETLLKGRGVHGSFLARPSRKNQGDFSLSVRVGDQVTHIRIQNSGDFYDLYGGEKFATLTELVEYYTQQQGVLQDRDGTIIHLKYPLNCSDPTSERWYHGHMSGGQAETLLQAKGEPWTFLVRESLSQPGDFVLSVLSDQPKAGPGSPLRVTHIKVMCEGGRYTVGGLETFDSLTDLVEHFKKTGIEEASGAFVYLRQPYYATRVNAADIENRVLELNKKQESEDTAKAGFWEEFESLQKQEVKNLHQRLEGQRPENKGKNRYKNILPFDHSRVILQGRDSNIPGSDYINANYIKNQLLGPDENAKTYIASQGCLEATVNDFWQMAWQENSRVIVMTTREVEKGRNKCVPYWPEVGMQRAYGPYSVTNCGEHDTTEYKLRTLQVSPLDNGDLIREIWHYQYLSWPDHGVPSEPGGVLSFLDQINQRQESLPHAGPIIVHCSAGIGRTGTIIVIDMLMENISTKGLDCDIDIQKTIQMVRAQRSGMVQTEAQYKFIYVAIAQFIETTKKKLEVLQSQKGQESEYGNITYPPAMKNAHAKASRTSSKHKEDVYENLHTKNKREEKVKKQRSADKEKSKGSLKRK

Q: “biotin-QLRRRGKTNHYQTTVEKK SLTIYAQVQKPGPLQKKLD SFPA QDPCTTIYVAATEPVPESVQET NSITVY^∗ASVTLPES [SLAM, N-terminally biotinylated singly phosphorylated peptide of the cytoplasmic tail of SLAM, 77 aa]” was tested. Which “molecular reach contributed by the peptide tail (LPD-1 or LSLAM)” value (37°C, ((L^2 − LSHP-1^2)/2)^1/2 with LSHP-1 = 13.0 nm) did it give?
A: 20.1 nm and 20 nm

Q: And the kon (SPR Biacore T200, 37°C, 10 μL/min, SHP-1 injected 45 s over biotinylated phosphopeptide on streptavidin CM5 chip, HEPES pH 7.4, MPDPDE fit, mean ± SE of N experiments)?
A: 20000 ± 10000 M⁻¹ s⁻¹

Q: What about the “allosteric activation of SHP-1, ratio kcat(tethered)/kcat(solution)” value (SPR, 37°C) of the same substance?
A: 6.2 fold

Q: What about the Kd (SPR, 37°C, KD = koff/kon, mean ± SE of N experiments) of the same substance?
A: 130 ± 40 µM

Q: What about the “L, molecular reach of the reaction” value (SPR, 37°C, L = (σ*)^−1/3 from averaged σ*, ± SE) of the same substance?
A: 31.2 ± 1.2 nm

Q: And the “kcat(solution)” value [1]?
A: 5800 ± 1000 M⁻¹ s⁻¹

Q: And the “kcat(tethered)” value [1]?
A: 36000 ± 3000 M⁻¹ s⁻¹

Q: What about the koff [1] of the same substance?
A: 1.7 ± 0.2 s⁻¹

Q: What about the “σ* (local concentration)” value [1] of the same substance?
A: 55 ± 6 µM
